Reference: patent publication US6770627B1, “Piperizine-4-phenyl derivatives as inhibitors of the interaction between mdm2 and p 53” (AstraZeneca AB, priority 1998, dated 2004)

Target: T1, p53/MDM2 interaction [MDM2 (1-118) 6 his and GST-p53(1-50)] (Homo sapiens, UniProt Q00987)
T1 construct: The human MDM2 N-terminal fragment encompassing amino acids 1-118; made in house; host or cells: E. coli BL21/DE3 (MDM2-6His); E. coli DH5alpha (GST-p53)
Test: Measurement of the inhibition of p53/MDM2 interaction (modified ELISA)
Assay type: binding
Details: 75 nM GST-p53 coated, 75 nM MDM2-6His, NTA-AP detection, optical density at 405 nm, compounds tested between 0 and 100 μM
Protocol: The inhibition of the p53/MDM2 interaction by compounds was measured using a modified ELISA assay using a histidine tagged MDM2 [MDM2 (1-118) 6 his], a p53 GST fusion protein (GST-p53) and a nickel chelate-alkaline phosphatase (NTA-AP).
The human MDM2 N-terminal fragment encompassing amino acids 1-118 and immediately followed by a C-terminal 6-histidine tag sequence and then a stop codon was generated by PCR from a human placental cDNA library. The PCR product was initially cloned into pCR2.1 vector (Invitrogen) following the manufacturer's protocol. DNA sequencing confirmed a MDM fragment sequence identical to that of published MDM2 (EMBL accession no. Z12020). The MDM2-6His fragment was then subcloned into pTB375 E. coli expression vector to produce the expression vector pTB375-MDM2-6His (1-118) clone no. 11. The pTB375 vector is a modified T7 (Studier) Expression vector. Expression grows were performed in E. coli strain BL21/DE3 (obtained from Novagen Inc.) and expression of the recombinant protein was induced by addition of IPTG (isopropyl-β-D-1-thiogalactopyranoside). MDM2 (1-118) 6 his was purified from E. coli lysates using Ni-NTA beads (Qiagen). […]
100 μl of 75 nM GST-p53 was added per well to a 96 well plate (Nunc Maxisorp) and the plate left at 4° C. overnight. […] The optical density of each well was measured at 405 nm. […]

T1 sequence (Q00987 1-118): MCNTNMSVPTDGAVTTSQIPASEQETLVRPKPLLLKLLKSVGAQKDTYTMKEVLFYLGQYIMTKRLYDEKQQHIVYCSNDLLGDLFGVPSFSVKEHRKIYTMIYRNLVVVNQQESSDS

Question: For `Cc1occc1C(=O)N[C@@H](Cc1c[nH]c2ccccc12)C(=O)N1CCN(c2ccc([N+](=O)[O-])cc2)CC1` [Example 9, 2-Methyl-3-furoyl-Trp-piperazine-4-nitrophenyl], which IC50 is on record?
Answer: ~4 µM
